Data published in ChEMBL document CHEMBL3885861, “Open TG-GATES”.

Species on record: Rattus norvegicus
Experiment: Open TG-GATES - Regimen: Single
Type: toxicity, organism-based, Sprague-Dawley
Parameters: regimen Single, gender Male, age 6 weeks
Details: in vivo, po, 0 mg/kg, route gavage, dose level Control; for APTT / Bas / Eos / Fbg / Hb / Ht / Lym / MCH / MCHC / MCV / Mono / Neu / PT / Plat / RBC / Ret / WBC: tissue Blood; for KIDNEY_L / KIDNEY_R / KIDNEY_TOTAL: tissue Kidney; for LIVER: tissue Liver; for A/G / ALP / ALT / AST / BUN / CRE / Ca / Cl / DBIL / GLC / IP / K / LDH / Na / PL / RALB / TBIL / TC / TG / TP / gamma-GTP: tissue Plasma

## Cn1c(=O)c2[nH]cnc2n(C)c1=O.O [THEOPHYLLINE]
3 h
  TERMINAL_BW: 221.7 g
  APTT: 22.2 s
  Bas: 0%
  Eos: 0.8%
  Fbg: 289.8 mg/dL
  Hb: 13.1 g/dL
  Ht: 39.5%
  Lym: 83.2%
  MCH: 20.7 pg
  MCHC: 33.2%
  MCV: 62.5 fL
  Mono: 1.8%
  Neu: 13.6%
  PT: 15.5 s
  Plat: 119 x10_4/uL
  RBC: 632.2 x10_4/ul
  Ret: 8.4%
  WBC: 101.2 x10_2/uL
  KIDNEY_L: 1 g
  KIDNEY_R: 1 g
  KIDNEY_TOTAL: 2 g
  LIVER: 10.3 g
  A/G: 1.3
  ALP: 1309 IU/L
  ALT: 43.6 IU/L
  AST: 70 IU/L
  BUN: 13.8 mg/dL
  CRE: 0.2 mg/dL
  Ca: 10.5 mg/dL
  Cl: 105 meq/L
  DBIL: 0 mg/dL
  GLC: 190.4 mg/dL
  IP: 8.8 mg/dL
  K: 4.2 meq/L
  LDH: 179 IU/L
  Na: 142.6 meq/L
  PL: 135.8 mg/dL
  RALB: 3 g/dL
  TBIL: 0.018 mg/dL
  TC: 77.4 mg/dL
  TG: 49.2 mg/dL
  TP: 5.3 g/dL
  gamma-GTP: 1.2 IU/L
6 h
  TERMINAL_BW: 213.2 g
  APTT: 21.5 s
  Bas: 0%
  Eos: 0.6%
  Fbg: 300.6 mg/dL
  Hb: 13.7 g/dL
  Ht: 40.9%
  Lym: 82.2%
  MCH: 20.8 pg
  MCHC: 33.4%
  MCV: 62.3 fL
  Mono: 2.6%
  Neu: 13.2%
  PT: 15.6 s
  Plat: 118.7 x10_4/uL
  RBC: 657.2 x10_4/ul
  Ret: 7.4%
  WBC: 102.6 x10_2/uL
  KIDNEY_L: 1 g
  KIDNEY_R: 1 g
  KIDNEY_TOTAL: 1.9 g
  LIVER: 9.1 g
  A/G: 1.2
  ALP: 1402.8 IU/L
  ALT: 39.8 IU/L
  AST: 75.6 IU/L
  BUN: 10.8 mg/dL
  CRE: 0.1 mg/dL
  Ca: 10.4 mg/dL
  Cl: 105.8 meq/L
  DBIL: 0 mg/dL
  GLC: 183.8 mg/dL
  IP: 9.3 mg/dL
  K: 4.4 meq/L
  LDH: 202 IU/L
  Na: 142.6 meq/L
  PL: 124.6 mg/dL
  RALB: 2.9 g/dL
  TBIL: 0.024 mg/dL
  TC: 72.8 mg/dL
  TG: 48.2 mg/dL
  TP: 5.4 g/dL
  gamma-GTP: 1 IU/L
9 h
  TERMINAL_BW: 212.6 g
  APTT: 22.9 s
  Bas: 0%
  Eos: 0.8%
  Fbg: 310.2 mg/dL
  Hb: 13.3 g/dL
  Ht: 39.9%
  Lym: 77.6%
  MCH: 20.5 pg
  MCHC: 33.3%
  MCV: 61.6 fL
  Mono: 2.4%
  Neu: 18%
  PT: 15.8 s
  Plat: 119 x10_4/uL
  RBC: 649.6 x10_4/ul
  Ret: 7.5%
  WBC: 79.6 x10_2/uL
  KIDNEY_L: 1 g
  KIDNEY_R: 1 g
  KIDNEY_TOTAL: 2 g
  LIVER: 8.6 g
  A/G: 1.2
  ALP: 1444.4 IU/L
  ALT: 35.2 IU/L
  AST: 70.4 IU/L
  BUN: 12.6 mg/dL
  CRE: 0.2 mg/dL
  Ca: 10.8 mg/dL
  Cl: 105.8 meq/L
  DBIL: 0 mg/dL
  GLC: 188 mg/dL
  IP: 9.2 mg/dL
  K: 4.3 meq/L
  LDH: 180.6 IU/L
  Na: 140.8 meq/L
  PL: 125.6 mg/dL
  RALB: 3.1 g/dL
  TBIL: 0.022 mg/dL
  TC: 73.2 mg/dL
  TG: 52.8 mg/dL
  TP: 5.5 g/dL
  gamma-GTP: 1 IU/L
24 h
  TERMINAL_BW: 228.3 g
  APTT: 21.9 s
  Bas: 0%
  Eos: 1%
  Fbg: 291.2 mg/dL
  Hb: 13.6 g/dL
  Ht: 40.4%
  Lym: 82.2%
  MCH: 20.8 pg
  MCHC: 33.7%
  MCV: 61.5 fL
  Mono: 2.6%
  Neu: 13%
  PT: 15.9 s
  Plat: 115.8 x10_4/uL
  RBC: 657 x10_4/ul
  Ret: 6.9%
  WBC: 97 x10_2/uL
  KIDNEY_L: 1 g
  KIDNEY_R: 1 g
  KIDNEY_TOTAL: 2 g
  LIVER: 10.4 g
  A/G: 1.2
  ALP: 1398.8 IU/L
  ALT: 40.8 IU/L
  AST: 69.4 IU/L
  BUN: 16.6 mg/dL
  CRE: 0.2 mg/dL
  Ca: 10.9 mg/dL
  Cl: 106.2 meq/L
  DBIL: 0 mg/dL
  GLC: 193.4 mg/dL
  IP: 7.7 mg/dL
  K: 4.3 meq/L
  LDH: 221 IU/L
  Na: 143.4 meq/L
  PL: 151.6 mg/dL
  RALB: 3 g/dL
  TBIL: 0.008 mg/dL
  TC: 80.4 mg/dL
  TG: 100.2 mg/dL
  TP: 5.5 g/dL
  gamma-GTP: 1.2 IU/L
